Data on ten molecules can be found in patent US7153853B2, “Heterocyclic compounds and antitumor drugs containing the same as the active ingredient” (Zenyaku Kogyo Kabushiki Kaisha, priority 2002, dated 2006).

In general, melting point refers to the temperature of the solid-liquid transition.

One series has as its system MCF-7 cells. Description: Test 1: growth inhibition of MCF-7 human breast cancer cells. The format is cell-based. The note with it: read-out: GI50 (50% growth inhibition concentration). How it is done:
Used in the test were MCF-7 cells which were established from human breast cancer and were cultured routinely under the conditions of 37° C. and 5% CO2, in MEM medium supplemented with 10% fetal calf serum, 25 mM of HEPES and 0.1 mg/ml of kanamycin. The MCF-7 cells in a logarithmic growth phase were treated with trypsin/EDTA to prepare single cell suspension adjusted to 4.0×10^4 cells/ml in MEM medium (supplemented with 10% fetal calf serum, 25 mM of HEPES and 0.1 mg/ml of kanamycin). Test compounds were dissolved in DMSO and diluted with RPMI 1640 medium (supplemented with 10% fetal calf serum, 25 mM of HEPES and 0.1 mg/ml of kanamycin) to a concentration of 2.0×10^−9−2.0×10^−4 M.
The cell suspension was filled in a 96-wells microplate at a rate of 0.1 ml per well and was cultured for 24 hours so as to make the cells adhered to the microplate. Then, it was added with 0.1 ml of the sample solution and cultured at 37° C. for 72 hours in 5% CO2.
50% Growth inhibition concentrations (GI50 μM) were calculated from growth inhibitions at various sample concentrations.

The test system of series [1] is human colonic cancer WiDr. Description: Test 2: human colonic cancer WiDr transplanted subcutaneously in nude mice, relative tumor growth T/C. It is filed as in vivo, BALB/c nude mice. The note with it: 200 mg/kg intraperitoneally, once a day, six times a week, two weeks; effective (+) = T/C less than 50% and Mann-Whitney significant at one-sided 1%. From the text: Mutant BALB/c nude mice were used for routine culture of 2-mm-square piece of human colonic cancer WiDr which was transplanted subcutaneously into left breast of each of the mice. The mice were separated for testing into groups each of five mice at the time of the tumor in its logarithmic growth phase. The samples prepared by dissolving test compounds in physiological saline solution or suspending them in 1% hydroxypropyl cellulose (HPC), using an agate mortar, were intraperitoneally administered at a rate of 200 mg/kg, once a day and six times a week in total, for two weeks. Major and minor axes of the tumor mass were measured on a daily basis to calculate tumor volume. […] As a result, the compound according to the present invention was effective whereas the comparative compound A was ineffective.

Setting [2] is: Homo sapiens, MCF7, cultured 72 hours with sample.

Where two headings read alike, the source gives them in different places.

Turning to `CN1CCC(N(C)c2nc(N3CCOCC3)nc(-n3c(C(F)F)nc4c(Cl)cc(N)cc43)n2)CC1`, the melting point is 194 °C (dec.).

Take `OCC1CCCN1c1cc(N2CCOCC2)nc(-n2c(C(F)F)nc3c(O)cccc32)n1` (stereo not drawn) [compound 1, 2-(2-difluoromethyl-4-hydroxybenzimidazol-1-yl)-4-(2-hydroxymethylpyrrolidin-1-yl)-6-morpholinopyrimidine]: the melting point fell in the range of 195 to 198 °C. Moreover, the GI50 in the series with MCF-7 cells (setting [2]) was found to be 70 nM.

For `c1cn(-c2nc(N3CCOCC3)nc(N3CCOCC3)n2)cn1` [compound C, 2-(imidazol-1-yl)-4,6-dimorpholino-1,3,5-triazine, reference compound], the GI50 with MCF-7 cells (setting [2]) came out at 20000 nM.

Take `Oc1ccc2c(nc(C(F)F)n2-c2nc(N3CCOCC3)nc(N3CCOCC3)n2)c1Cl` [compound 6, 2-(4-chloro-2-difluoromethyl-5-hydroxybenzimidazol-1-yl)-4,6-dimorpholino-1,3,5-triazine]: the melting point was above 250 °C. Besides, the GI50 in the series on MCF-7 cells (setting [2]) amounted to 80 nM.

As to `CC1(C)CN(c2nc(N3CCOCC3)nc(-n3c(C(F)F)nc4c(Cl)cc(N)cc43)n2)CCO1` [compound 2, 2-(6-amino-4-chloro-2-difluoromethylbenzimidazol-1-yl)-4-(2,2-dimethylmorpholino)-6-morpholino-1,3,5-triazine], the melting point was 238 °C (dec.). Moreover, the GI50 in the series with MCF-7 cells (setting [2]) came out at 80 nM.

As for `C[C@@H]1OCCN(c2cc(N3CCOCC3)nc(-n3cnc4ccccc43)n2)[C@H]1C` (relative stereo) [compound A, 2-(benzimidazol-1-yl)-4-(trans-2,3-dimethylmorpholino)-6-morpholinopyrimidine, reference compound], the “antitumor effect judged from T/C (%) of the last day” value in series [1] is “ineffective”. Further, the GI50 with MCF-7 cells (setting [2]) was 2200 nM.

Regarding `Cc1nc2ccccc2n1-c1nc(N2CCOCC2)nc(N2CCOCC2)n1` [compound B, 2-(2-methylbenzimidazol-1-yl)-4,6-dimorpholino-1,3,5-triazine, reference compound], the GI50 with MCF-7 cells (setting [2]) amounted to 3700 nM.

As for `Nc1cc(Cl)c2nc(C(F)F)n(-c3nc(N4CCOCC4)nc(N4CCCC4CO)n3)c2c1` (stereo not drawn) [compound 3, 2-(6-amino-4-chloro-2-difluoromethylbenzimidazol-1-yl)-4-(2-hydroxymethylpyrrolidin-1-yl)-6-morpholino-1,3,5-triazine], the melting point was 256 °C (dec.). Moreover, the GI50 in the series on MCF-7 cells (setting [2]) came out at 270 nM.

As for `OCC1CCCN1c1nc(N2CCOCC2)nc(-n2c(C(F)F)nc3c(O)cccc32)n1` (stereo not drawn) [compound 5, 2-(2-difluoromethyl-4-hydroxybenzimidazol-1-yl)-4-(2-hydroxymetylpyrrolidin-1-yl)-6-morpholino-1,3,5-triazine], the GI50 in the series with MCF-7 cells (cultured 72 hours with sample) worked out at 60 nM.

Turning to `CN(C)c1nc(N(C)C)nc(N(C)C)n1` [compound D, hexamethylmelamine, reference compound], the GI50 in the series with MCF-7 cells (setting [2]) is above 100000 nM.
